In brackets after ≈: the same amount, converted by molar mass.
Legend:
[1] = 28 day GLP toxicity study in dogs; conditions: dogs, 40 mg/kg/day, led to cessation of dosing after 9 days
Saccharomyces cerevisiae = test: Antifungal MIC; assay type: cell-based; conditions: DSM01333, DSM strain 01333, 48 h
Candida guilliermondii = test: Antifungal MIC; assay type: cell-based; conditions: Meyerozyma guilliermondii, DSM11947; DSM strain 11947, 48 h
Issatchenkia orientalis = test: Antifungal MIC; assay type: cell-based; conditions: Pichia kudriavzevii
Candida albicans = test: Antifungal MIC; assay type: cell-based
Candida glabrata = test: Antifungal MIC; assay type: cell-based; conditions: Nakaseomyces glabratus
plasma corticosterone = test: Plasma corticosterone in rats after oral dosing (ELISA); assay type: in vivo, Sprague Dawley rats; conditions: for Corticosteroid Levels (mean ± SEM): 4 h after gavage
Description: To generate the results shown in FIG. 1, five groups (eight per group) of rats were used. The rats were maintained on a 14/10 hour light/dark cycle and allowed free access to food and water. Each rat was dosed (200 mg drug/kg body weight) via a gastric tube. […] All of the rats were dosed between 2.00 and 3.00 pm and were sacrificed four hours later (between 6.00 and 7.00 pm). Plasma was prepared and the concentration of corticosterone determined by an enzyme linked immuno assay (ELISA). In rats, the predominant active glucocorticoid is corticosterone; in humans, the predominant active glucucorticoid is the closely related molecule cortisol.
The rats were maintained and dosed as described above. Plasma was prepared and the concentration of corticosterone in the plasma determined by ELISA.
(§1) The rats were maintained as described above; the drugs were suspended in olive oil, and each rat was dosed once via gastric tube to achieve a dose of 200 mg/kg. All of the rats were dosed at a specific time so that all terminations occurred between 6 and 7 pm. […] Following sacrifice, plasma was prepared, and the concentration of corticosterone in the plasma was determined by ELISA. In the same plasma samples, total cholesterol levels were also determined.
In the Table, corticosterone levels (mean±SEM; ng/mL) were determined four hours after oral gavage of the indicated drug (N=10/group). There was a single control group (dosed with vehicle).
Corticosterone levels (mean±SEM; ng/mL) were determined at the indicated times after oral gavage of the indicated drug at 200 mg/kg. […] The means of the vehicle treated groups are used as the time zero control point.

Candida kefyr = test: Antifungal MIC; assay type: cell-based; conditions: Kluyveromyces marxianus, DSM11954; DSM strain 11954, 48 h
[2] = Toxicokinetics in the 28 day dog study of DIO-902 (with racemic ketoconazole group a); conditions: beagle, plasma, dogs; for concentration at 0 h / concentration at 1 h / concentration at 2 h / concentration at 4 h / concentration at 8 h / concentration at 12 h: Drug concentration in plasma; for AUC(0-t): AUC(0-12); for Tmax: Tmax Range;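 on all read-outs here: beagle dogs dosed orally once daily within a 28-day GLP study, 3 animals per sex per group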
cholesterol levels = test: Cholesterol levels in rats after oral dosing; assay type: in vivo, Sprague Dawley rats; conditions: for Cholesterol Levels (mean ± SEM): single oral 200 mg/kg
Description: as §1

[3] = female, oral, 20 mg/kg, group a: 20 mg/kg oral (after 40 mg/kg days 1-9, pause), day 28, F
[4] = female, po, 20 mg/kg, group a: 20 mg/kg oral (after 40 mg/kg days 1-9, pause), day 28, F
[5] = female, po, 40 mg/kg, group a: 40 mg/kg oral, day 1, F
[6] = male, oral, 20 mg/kg, group a: 20 mg/kg oral (after 40 mg/kg days 1-9, pause), day 28, M
[7] = male, po, 20 mg/kg, group a: 20 mg/kg oral (after 40 mg/kg days 1-9, pause), day 28, M
[8] = male, po, 40 mg/kg, group a: 40 mg/kg oral, day 1, M

With `CC(=O)N1CCN(c2ccc(OCC3COC(Cn4ccnc4)(c4ccc(Cl)cc4Cl)O3)cc2)CC1` (racemic) [Racemic ketoconazole, 1-acetyl-4-[4-[[2-(2,4-dichlorophenyl)-2-[(1H-imidazol-1-yl)-methyl]-1,3-dioxolan-4-yl]methoxy]phenyl]piperazine] the body weight losses [1] was “up to 17.3%”, the MIC (Saccharomyces cerevisiae) was 0.25 µg/mL (≈ 0.47 µM) and the MIC (Candida guilliermondii) was 0.125 µg/mL (≈ 0.235 µM). For the same compound, the MIC (Issatchenkia orientalis; DSM11956, 48 h) was 0.25 µg/mL (≈ 0.47 µM), the MIC (Issatchenkia orientalis; DSM11958, 48 h) was 1 µg/mL (≈ 1.88 µM) and the MIC (Candida albicans; 48 h) was < 0.015 µg/mL. For the same compound, the MIC (Candida albicans; DSM11225, 48 h) was < 0.015 µg/mL, the MIC (Candida albicans; DSM11943, 48 h) was < 0.015 µg/mL and the MIC (Candida albicans; DSM11944, 48 h) was < 0.015 µg/mL. The MIC (Candida albicans; DSM11945, 48 h) was 0.03 µg/mL (≈ 0.0565 µM), the MIC (Candida albicans; DSM11948, 48 h) was < 0.015 µg/mL and the MIC (Candida albicans; DSM11949, 48 h) was 0.125 µg/mL (≈ 0.235 µM). For the same compound, the MIC (Candida glabrata; DSM11226, 48 h) was 0.5 µg/mL (≈ 0.941 µM), the MIC (Candida glabrata; DSM11950, 48 h) was 0.25 µg/mL (≈ 0.47 µM) and the “efficacy at lowering corticosterone, time course (FIG. 3)” value (plasma corticosterone; 200 mg/kg oral, up to 24 hours) was “intermediate between the two enantiomers”. For the same compound, the “Corticosteroid Levels (mean ± SEM)” value (plasma corticosterone; single oral 50 mg/kg) was 215 ± 20.7 ng/mL, the “Corticosteroid Levels (mean ± SEM)” value (plasma corticosterone; single oral 100 mg/kg) was 210 ± 15.5 ng/mL and the “Corticosteroid Levels (mean ± SEM), time course” value (plasma corticosterone; single oral 200 mg/kg, 4 h) was 134 ± 10 ng/mL. For the same compound, the “Corticosteroid Levels (mean ± SEM)” value (plasma corticosterone; single oral 200 mg/kg) was 135 ± 13.7 ng/mL, the “Corticosteroid Levels (mean ± SEM), time course” value (plasma corticosterone; single oral 200 mg/kg, 8 h) was 163 ± 11 ng/mL and the “Corticosteroid Levels (mean ± SEM), time course” value (plasma corticosterone; single oral 200 mg/kg, 12 h) was 153 ± 14 ng/mL. For the same compound, the “Corticosteroid Levels (mean ± SEM), time course” value (plasma corticosterone; single oral 200 mg/kg, 16 h) was 132 ± 6 ng/mL, the “Corticosteroid Levels (mean ± SEM), time course” value (plasma corticosterone; single oral 200 mg/kg, 20 h) was 147 ± 17 ng/mL and the “Corticosteroid Levels (mean ± SEM), time course” value (plasma corticosterone; single oral 200 mg/kg, 24 h) was 151 ± 14 ng/mL. The “Corticosteroid Levels (mean ± SEM)” value (plasma corticosterone; single oral 400 mg/kg) was 113 ± 6.6 ng/mL, the “Corticosteroid Levels (mean ± SEM)” value (plasma corticosterone; single oral 600 mg/kg) was 115 ± 14.3 ng/mL and the MIC (Candida kefyr) was 0.03 µg/mL (≈ 0.0565 µM). For the same compound, the concentration at 0 h [2, 3] was < 250 ng/mL, the concentration at 1 h [2, 3] was < 250 ng/mL and the concentration at 2 h [2, 3] was 270 ng/mL. For the same compound, the concentration at 4 h [2, 3] was 350 ng/mL, the concentration at 8 h [2, 3] was 310 ng/mL and the concentration at 12 h [2, 3] was < 250 ng/mL. The AUC(0-t) ([2]; female, po, 20 mg/kg, group a: 20 mg/kg oral (after 40 mg/kg days 1-9, pause), day 28, F, n = 1) was 4700 ng·h/mL, the Cmax [2, 4] was 550 ng/mL and the Tmax [2, 4] was 2 to 8 h. For the same compound, the AUC(0-t) [2, 5] was 185000 ng·h/mL, the Cmax [2, 5] was 21300 ng/mL and the concentration at 0 h [2, 5] was < 250 ng/mL. It also gave a concentration at 1 h [2, 5] of 4290 ng/mL, a concentration at 2 h [2, 5] of 12300 ng/mL and a concentration at 4 h [2, 5] of 20100 ng/mL. It also gave a concentration at 8 h [2, 5] of 18300 ng/mL, a concentration at 12 h [2, 5] of 14800 ng/mL and a Tmax [2, 5] of 4 to 8 h. The concentration at 0 h [2, 6] was < 250 ng/mL, the concentration at 1 h [2, 6] was < 250 ng/mL and the concentration at 2 h [2, 6] was 280 ng/mL. For the same compound, the concentration at 4 h [2, 6] was < 250 ng/mL, the concentration at 8 h [2, 6] was < 250 ng/mL and the concentration at 12 h [2, 6] was < 250 ng/mL. It also gave an AUC(0-t) ([2]; male, po, 20 mg/kg, group a: 20 mg/kg oral (after 40 mg/kg days 1-9, pause), day 28, M, n = 1) of 3420 ng·h/mL, a Cmax [2, 7] of 510 ng/mL and a Tmax [2, 7] of 1 to 8 h. The AUC(0-t) [2, 8] was 143000 ng·h/mL, the Cmax [2, 8] was 16600 ng/mL and the concentration at 0 h [2, 8] was < 250 ng/mL. For the same compound, the concentration at 1 h [2, 8] was 5600 ng/mL, the concentration at 2 h [2, 8] was 8870 ng/mL and the concentration at 4 h [2, 8] was 10800 ng/mL. The concentration at 8 h [2, 8] was 16600 ng/mL, the concentration at 12 h [2, 8] was 12800 ng/mL and the Tmax [2, 8] was 8 h. The “efficacy at lowering cholesterol” value (cholesterol levels; 200 mg/kg oral, up to 24 hours) was “intermediate between the two enantiomers”, the “Cholesterol Levels (mean ± SEM)” value (cholesterol levels; 4 h) was 81.2 ± 3.9 mg/dL and the “Cholesterol Levels (mean ± SEM)” value (cholesterol levels; 8 h) was 73.5 ± 2.3 mg/dL. The “Cholesterol Levels (mean ± SEM)” value (cholesterol levels; 12 h) was 69.6 ± 2.3 mg/dL and the “Cholesterol Levels (mean ± SEM)” value (cholesterol levels; 16 h) was 69.6 ± 3.1 mg/dL.
